Experimental data taken from publication PMC8714961, “Involvement of P-gp on Reversing Multidrug Resistance Effects of 23-Hydroxybetulinic Acid on Chemotherapeutic Agents” (Frontiers in Pharmacology, 2021).
Where two headings read alike, the source gives them in different places. Marks after values point to notes of the source that are not given here.

Legend:
MCF-7/ADR cells [1] = test: Hoechst assay (apoptosis); type: cell-based, human; conditions: for Number of apoptosis cells, single agent: vs control group
Experimental: MCF-7/ADR cells were collected and cultured at the density of 2.0 × 10^5/well in 24-well plates. […] The cells were dyed with Hoechst 33,342 (Beyotime, Shanghai, China) in the dark at 37°C for 30 min after washing with phosphate buffered saline (PBS). The morphological changes of the nucleus were evaluated by a fluorescence microscope.

P-gp [2] = target: T1, P-gp (Homo sapiens, UniProt P08183); test: MDCK-MDR1 transport study, inhibition of VCR transport; conditions: for Folds (RE) of VCR: vs control
T1 sequence (P08183 whole entry): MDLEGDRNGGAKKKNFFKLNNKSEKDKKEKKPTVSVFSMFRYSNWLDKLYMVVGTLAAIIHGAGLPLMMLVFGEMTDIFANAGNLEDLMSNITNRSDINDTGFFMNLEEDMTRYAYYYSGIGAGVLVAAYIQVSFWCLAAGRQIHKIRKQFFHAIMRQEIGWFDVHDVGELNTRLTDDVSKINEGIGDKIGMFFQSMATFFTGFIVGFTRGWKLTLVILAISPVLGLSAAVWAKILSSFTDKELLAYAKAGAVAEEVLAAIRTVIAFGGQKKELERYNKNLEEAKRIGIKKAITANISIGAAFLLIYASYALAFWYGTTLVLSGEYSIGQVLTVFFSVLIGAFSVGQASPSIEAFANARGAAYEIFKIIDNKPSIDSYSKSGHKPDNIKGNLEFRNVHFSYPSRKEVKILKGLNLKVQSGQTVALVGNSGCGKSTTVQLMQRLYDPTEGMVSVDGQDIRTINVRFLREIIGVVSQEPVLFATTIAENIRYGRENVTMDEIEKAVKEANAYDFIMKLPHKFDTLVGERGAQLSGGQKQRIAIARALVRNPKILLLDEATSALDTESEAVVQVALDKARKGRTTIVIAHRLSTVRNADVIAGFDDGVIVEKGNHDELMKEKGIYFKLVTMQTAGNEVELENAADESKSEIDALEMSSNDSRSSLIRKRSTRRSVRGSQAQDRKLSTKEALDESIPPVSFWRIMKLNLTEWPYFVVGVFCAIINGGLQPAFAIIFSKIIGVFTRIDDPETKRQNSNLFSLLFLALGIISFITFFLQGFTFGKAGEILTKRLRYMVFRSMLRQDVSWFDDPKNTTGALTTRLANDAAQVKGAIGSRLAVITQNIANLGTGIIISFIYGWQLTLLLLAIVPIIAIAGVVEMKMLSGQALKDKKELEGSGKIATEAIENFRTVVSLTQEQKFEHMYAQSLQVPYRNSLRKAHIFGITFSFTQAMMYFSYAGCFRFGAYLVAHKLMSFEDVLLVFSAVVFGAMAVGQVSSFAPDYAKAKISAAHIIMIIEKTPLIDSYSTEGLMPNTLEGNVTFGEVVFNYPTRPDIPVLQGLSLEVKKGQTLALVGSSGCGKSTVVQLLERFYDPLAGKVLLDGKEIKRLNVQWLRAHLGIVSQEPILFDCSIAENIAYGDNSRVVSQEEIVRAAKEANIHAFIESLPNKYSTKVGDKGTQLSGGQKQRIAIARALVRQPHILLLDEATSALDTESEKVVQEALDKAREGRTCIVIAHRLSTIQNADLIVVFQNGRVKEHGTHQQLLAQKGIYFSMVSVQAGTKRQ
Experimental: Briefly, MDCK-MDR1 cells (1×10^5/Well) were seeded onto […] pore-size transwell inserts (Millipore, MA, United States) in 24-well plates.
(§1) The cells were rinsed with warmed Hank’s balanced salt solution (HBSS), and the inserts were incubated for 20 min at 37°C. […] Aliquots (50 µl) were taken from the receiver compartment at intervals of 30, 60, 90, and 120 min and replaced with fresh buffer. In the study, verapamil (VER), known P-gp inhibitor, was selected as positive control.
(§2) The apparent permeability values (Papp) were evaluated in all experiments according to the following equation: Papp=dQ/dt/AC0 (1) where A means the insert area and C0 represents the initial concentration. dQ/dt represents the slope of the cumulative content transported during the time course of the period studied.

P-gp [3] = target: T1, P-gp; test: Caco-2 uptake study (digoxin, VCR)
Experimental: Briefly, the cells (1×10^5/Well) were cultured in 24-well plates, and culture medium was changed every other day. The uptake study was taken when the monolayers formed. […] After 2 h incubation, the drug solution was removed to terminate reaction, and the monolayers were washed three times with cold Hank’s solution. The other steps were taken according to the above process in Adriamycin/Vincristine Accumulation Study.

MCF-7/ADR cells [4] = test: Trypan blue exclusion assay, MCF-7/ADR cells; type: cell-based; conditions: for Cytotoxicity of combination exposure with ADR to MCF-7/ADR: 0–20 µM with ADR 3 µM; for Cell toxicity as a single agent: 0–20 µM
Experimental: (§3) MCF-7 (human breast carcinoma cells) and MCF-7/ADR (P-gp-overexpressing derivative cells) cell lines were obtained from Blood Diseases Hospital, Chinese Academy of Medica ([Shi et al., 2011]). The cells were routinely maintained in RPMI 1640 with 10% heat-inactivated fetal bovine serum (FBS), 1% non-essential amino acid solution, 0.1 mg/ml streptomycin, and 100 units/ml penicillin. Caco-2 cells were purchased from American Type Culture Collection (ATCC, Rockville, MD, United States). Vector-MDCK and MDR1-MDCK cells were purchased from PharmaResources Co., Ltd. (China). Both Caco-2 and MDCK cells were maintained at Dulbecco’s modified Eagle’s medium (DMEM) with 10% FBS, 1% non-essential amino acid solution, 0.1 mg/ml streptomycin, and 100 units/ml penicillin. MCF-7/ADR cells were treated with […] and were cultured in ADR-free medium for more than 14 days before the experiment. All cells were cultured at 37°C in a humidified atmosphere of 5% CO2.
(§4) Trypan blue exclusion assay was used to measure the viability of cells to compounds. Briefly, MCF-7/sensitive (MCF-7/S) and MCF-7/ADR cells were diluted into the density of 0.5×10^4 cells/ml, then cells (1 ml) were seeded in culture plates. […]. The viable and dead cells (stained in blue) were counted by haemacytometer.

[5] = system: MDCK-MDR1 cell monolayers; test: MDCK-MDR1 transport of BA/23-HBA with or without verapamil; conditions: for Folds (RE): +VER (verapamil 20 µM) vs without VER
Experimental: (§5) Briefly, MDCK-MDR1 cells (1×10^5/Well) were seeded onto […] pore-size transwell inserts (Millipore, MA, United States) in 24-well plates. Cells were cultured for 5–7 days, when the transepithelial electrical resistance (TEER) values were 120–240 Ω cm^2.
as §1, §2
(§6) The efflux ratio (ER) was detected according to the ratio of Papp as the following equation: ER=Papp(B−A)/Papp(A−B) (2)

MCF-7/S cells [6] = test: Trypan blue exclusion assay, MCF-7/S cells; type: cell-based; conditions: 0.2, 2 and 20 µM with ADR 0.08 µM or VCR 0.5 µM, 48 h
Experimental: as §3, §4

P-gp [7] = target: T1, P-gp; test: MDR1 shift assay (UIC2 binding); type: cell-based; set-up: endogenous in cells; host or cells: MCF-7/ADR; conditions: 25 µM, MCF-7/ADR cells, vs solvent control
Experimental: The monoclonal antibody UIC2 (2.5 μl) was added and incubated for 15 min, then 1 ml of cold binding buffer was used to terminate reaction. The cells were rinsed twice, followed by adding cold phycoerythrin-labeled anti-mouse IgG (250 μl) for another 15 min in the dark. Finally, cells were rinsed and incubated in cold binding buffer (250 μl) and further evaluated by flow cytometer (Cytomics FC 500; Beckman Coulter, Fullerton, CA). In this study, vincristine (25 µM) was set as positive control.

MCF-7/S cells [8] = test: ADR/VCR accumulation study in MCF-7/S cells; conditions: ADR/VCR 5 µM, test compound 0.2, 2, 20 µM, 1 h
Experimental: (§7) MCF-7 cells (1×10^5/Well) were incubated in 24-well plates. […] After 1 h incubation, the compound solution was aspirated to stop further accumulation, and the monolayers were rinsed with cold Hank’s solution for three times. The drug content was detected by lysing the cells with ultrasound, and then the single well lysate was transferred to a plastic EP tube for further analysis. The protein concentration of the cells was measured using Coomassie brilliant blue.

MCF-7/ADR cells [9] = test: ADR/VCR accumulation study in MCF-7/ADR cells; conditions: ADR/VCR 5 µM, test compound 0.2, 2, 20 µM, 1 h
Experimental: as §7

P-gp [10] = target: T1, P-gp; conditions: for Folds (RE) of digoxin: vs control
Experimental: Briefly, MDCK-MDR1 cells (1×10^5/Well) were seeded onto 0.4 mm pore-size transwell inserts (Millipore, MA, United States) in 24-well plates.

P-gp [11] = test: MDCK-MDR1 transport of BA/23-HBA with or without verapamil; conditions: dog
Experimental: as §5, §1, §2, §6

[12] = compound 0.2 µM, +VER (verapamil 20 µM)
[13] = compound 0.2 µM, without verapamil
[14] = compound 2 µM, +VER (verapamil 20 µM)
[15] = compound 2 µM, without verapamil
[16] = compound 20 µM, +VER (verapamil 20 µM)
[17] = compound 20 µM, without verapamil
[18] = digoxin 5 µM with test compound 0.2 µM
[19] = digoxin 5 µM with test compound 2 µM
[20] = digoxin 5 µM with test compound 20 µM
[21] = MDCK-MDR1, with verapamil 20 µM

Structure (SMILES): COc1cccc2c1C(=O)c1c(O)c3c(c(O)c1C2=O)C[C@@](O)(C(=O)CO)C[C@@H]3O[C@H]1C[C@H](N)[C@H](O)[C@H](C)O1 [ADR, Adriamycin, reference compound]
- Number of apoptosis cells, single agent (MCF-7/ADR cells [1]; 3 µM alone): not obviously different with the control group

Structure (SMILES): C=C(C)[C@@H]1CC[C@]2(C(=O)O)CC[C@]3(C)[C@H](CC[C@@H]4[C@@]5(C)CC[C@H](O)[C@@](C)(CO)[C@@H]5CC[C@]43C)[C@@H]12 [23-HBA, 23-hydroxybetulinic acid]
- Papp A→B of VCR (P-gp [2]; VCR with test compound 0.2 µM): 0.69 ± 0.30 ×10^−6 cm s^−1
- Papp B→A of VCR (P-gp [2]; VCR with test compound 0.2 µM): 4.45 ± 1.12 ×10^−6 cm s^−1
- RE (net efflux) of VCR (P-gp [2]; VCR with test compound 0.2 µM): 6.41
- Folds (RE) of VCR (P-gp [2]; VCR with test compound 0.2 µM): 1.70
- Papp A→B of VCR (P-gp [2]; VCR with test compound 2 µM): 2.49 ± 0.59 ×10^−6 cm s^−1
- Papp B→A of VCR (P-gp [2]; VCR with test compound 2 µM): 0.39 ± 0.01 ×10^−6 cm s^−1
- RE (net efflux) of VCR (P-gp [2]; VCR with test compound 2 µM): 0.16
- Folds (RE) of VCR (P-gp [2]; VCR with test compound 2 µM): 70.15
- Papp A→B of VCR (P-gp [2]; VCR with test compound 20 µM): 2.19 ± 1.74 ×10^−6 cm s^−1
- Papp B→A of VCR (P-gp [2]; VCR with test compound 20 µM): 0.48 ± 0.08 ×10^−6 cm s^−1
- RE (net efflux) of VCR (P-gp [2]; VCR with test compound 20 µM): 0.22
- Folds (RE) of VCR (P-gp [2]; VCR with test compound 20 µM): 49.32
- Inhibitory effect compared with verapamil (20 µM) in Caco-2 cells (P-gp [3]; 20 µM): higher than that of verapamil
- Effect on uptake of VCR and digoxin in Caco-2 cells (P-gp inhibition) (P-gp [3]; 0.2, 2 and 20 µM, 2 h): showed dose-dependent increase on the penetration of VCR and digoxin
- Cytotoxicity of combination exposure with ADR to MCF-7/ADR (MCF-7/ADR cells [4]): showed significant cytotoxicity to MCF-7/ADR
- Cell toxicity as a single agent (MCF-7/ADR cells [4]): no cell toxicity was detected
- Effect on cytotoxicity of MCF-7/ADR cells to ADR or VCR (MCF-7/ADR cells [4]; 0.2, 2 and 20 µM with ADR 3 µM or VCR 6 µM, 48 h): can increase cytotoxicity of MCF-7/ADR cells to ADR or VCR in concentration-dependent manner
- ER values ([5]; MDCK-MDR1 cells, all the concentrations (0.2–20 µM)): less than 1.5
- Papp A-B [5, 12]: 8.49 ± 1.39 ×10^−6 cm s^−1
- Papp B-A [5, 12]: 5.20 ± 0.59 ×10^−6 cm s^−1
- RE (net efflux) [5, 12]: 0.61**
- Folds (RE) ([5]; compound 0.2 µM): 0.41
- Papp A-B [5, 13]: 6.73 ± 0.09 ×10^−6 cm s^−1
- Papp B-A [5, 13]: 10.01 ± 1.38 ×10^−6 cm s^−1
- RE (net efflux) [5, 13]: 1.49
- Papp A-B [5, 14]: 10.03 ± 3.22 ×10^−6 cm s^−1
- Papp B-A [5, 14]: 7.83 ± 0.32 ×10^−6 cm s^−1
- RE (net efflux) [5, 14]: 0.78*
- Folds (RE) ([5]; compound 2 µM): 0.63
- Papp A-B [5, 15]: 7.07 ± 0.64 ×10^−6 cm s^−1
- Papp B-A [5, 15]: 8.75 ± 0.31 ×10^−6 cm s^−1
- RE (net efflux) [5, 15]: 1.24
- Papp A-B [5, 16]: 12.76 ± 1.13 ×10^−6 cm s^−1
- Papp B-A [5, 16]: 7.47 ± 1.64 ×10^−6 cm s^−1
- RE (net efflux) [5, 16]: 0.59
- Folds (RE) ([5]; compound 20 µM): 0.82
- Papp A-B [5, 17]: 5.95 ± 0.94 ×10^−6 cm s^−1
- RE (net efflux) [5, 17]: 0.72
- Effect on cytotoxicity of MCF-7/S cells to ADR or VCR (MCF-7/S cells [6]): neither 23-HBA nor BA showed significant effects on cytotoxicity
- Number of apoptosis cells, single agent (MCF-7/ADR cells [1]; 20 µM alone): not obviously different with the control group
- Apoptosis caused by ADR in combination exposure (MCF-7/ADR cells [1]; 2 and 20 µM with ADR 3 µM): dose-dependent (2 and 20 μM) increase in the apoptosis caused by ADR
- Fluorescence intensity of UIC2 binding (MDR1 shift) (P-gp [7]): fluorescence intensity showed slight increase
- Accumulation of ADR/VCR in sensitive MCF-7 cells (MCF-7/S cells [8]): little impact was observed
- Intracellular accumulation of ADR/VCR in resistant MCF-7 cells (MCF-7/ADR cells [9]): obviously increased
- RE (net efflux) of digoxin (P-gp [10]; [18]): 31.57
- Folds (RE) of digoxin (P-gp [10]; [18]): 1.16
- RE (net efflux) of digoxin (P-gp [10]; [19]): 27.96
- Folds (RE) of digoxin (P-gp [10]; [19]): 1.31
- RE (net efflux) of digoxin (P-gp [10]; [20]): 2.69
- Folds (RE) of digoxin (P-gp [10]; [20]): 13.61

Structure (SMILES): C=C(C)[C@@H]1CC[C@]2(C(=O)O)CC[C@]3(C)[C@H](CC[C@@H]4[C@@]5(C)CC[C@H](O)C(C)(C)[C@@H]5CC[C@]43C)[C@@H]12 [BA, Betulinic acid]
- Cytotoxicity of combination exposure with ADR to MCF-7/ADR (MCF-7/ADR cells [4]): not observed
- Cell toxicity as a single agent (MCF-7/ADR cells [4]): no cell toxicity was detected
- Folds (RE) ([5]; compound 0.2 µM): 0.66
- Folds (RE) ([5]; compound 2 µM): 0.75
- Folds (RE) ([5]; compound 20 µM): 0.78
- Papp A→B at 120 min, 0.2 µM (P-gp [11]; MDCK-MDR1): 61.2 ± 9.36 ×10⁻⁶ cm/s
- Papp A→B at 120 min, 2 µM (P-gp [11]; MDCK-MDR1): 5.43 ± 0.5 ×10⁻⁶ cm/s
- Papp A→B at 120 min, 20 µM (P-gp [11]; MDCK-MDR1): 0.72 ± 0.26 ×10⁻⁶ cm/s
- Papp B→A at 120 min, 0.2 µM (P-gp [11]; MDCK-MDR1): 55.1 ± 9.8 ×10⁻⁶ cm/s
- Papp B→A at 120 min, 2 µM (P-gp [11]; MDCK-MDR1): 6.51 ± 0.81 ×10⁻⁶ cm/s
- Papp B→A at 120 min, 20 µM (P-gp [11]; MDCK-MDR1): 0.59 ± 0.14 ×10⁻⁶ cm/s
- Papp A→B at 120 min, 0.2 µM (P-gp [11]; [21]): 105 ± 10.5 ×10⁻⁶ cm/s
- Papp A→B at 120 min, 2 µM (P-gp [11]; [21]): 7.65 ± 1.53 ×10⁻⁶ cm/s
- Papp A→B at 120 min, 20 µM (P-gp [11]; [21]): 0.26 ± 0.05 ×10⁻⁶ cm/s
- Papp B→A at 120 min, 0.2 µM (P-gp [11]; [21]): 62.1 ± 4.71 ×10⁻⁶ cm/s
- Papp B→A at 120 min, 2 µM (P-gp [11]; [21]): 6.9 ± 0.76 ×10⁻⁶ cm/s
- Papp B→A at 120 min, 20 µM (P-gp [11]; [21]): 0.17 ± 0.05 ×10⁻⁶ cm/s
- Effect on cytotoxicity of MCF-7/S cells to ADR or VCR (MCF-7/S cells [6]): neither 23-HBA nor BA showed significant effects on cytotoxicity
- Number of apoptosis cells, single agent (MCF-7/ADR cells [1]; 20 µM alone): not obviously different with the control group
- Accumulation of ADR/VCR in sensitive MCF-7 cells (MCF-7/S cells [8]): little impact was observed
